Results from patent US20040147531A1, “Amidine derivatives for treating amyloidosis” (priority 2001, published 2004).

Tests used:
Parameters in all cases: key: “+” = active; “−” = inactive; “pr” = promoting
[1] = molecular target: T1, Aβ40 (Homo sapiens, UniProt P05067); assay: mass spectroscopy (MS) assay, binding to Aβ; conditions: 200 μM test compound, 20 μM solubilized Aβ40, pH 7.4; ability to bind to Aβ
T1 construct: 200 μM of a test compound and 20 μM of solubilized Aβ40
Procedure: Test compounds were purchased from commercial sources or synthesized and screened by thioflavin T fluorescent assay (“ThT assay”). Alternatively, one could screen test compounds by circular dichroism (“CD”), electron microscopy (“EM”), or mass spectroscopy (“MS”) assays.
And in the mass spectroscopy (“MS”) assay, samples were prepared as aqueous solutions containing 20% ethanol, 200 μM of a test compound and 20 μM of solubilized Aβ40. The pH value of each sample was adjusted to 7.4 (±0.2) by addition of 0.1% aqueous sodium hydroxide. The solutions were then analyzed by electrospray ionization mass spectroscopy using a Waters ZQ 4000 mass spectrometer. Samples were introduced by direct infusion at a flow-rate of 25 μL/min within 2 hr. after sample preparation. The source temperature was kept at 70° C. and the cone voltage was 20 V for all the analysis. Data were processed using Masslynx 3.5 software.

[2] = molecular target: T2, Aβ (Homo sapiens, UniProt P05067); assay: electron microscopy (EM) assay, inhibition of fibrillogenesis; format: biochemical; conditions: soluble Aβ
T2 construct: Aβ peptide: Aβ (1-40) 95% purity (American Peptide Company, Inc, Sunnyvale, Calif. USA)
Description: (§1) Test compounds were purchased from commercial sources or synthesized and screened by thioflavin T fluorescent assay (“ThT assay”). Alternatively, one could screen test compounds by circular dichroism (“CD”), electron microscopy (“EM”), or mass spectroscopy (“MS”) assays. The MS assay gives data on the ability of compounds to bind to an amyloid protein, whereas the ThT, EM, and CD assays give data on inhibition of fibrillogenesis.
Similarly, in the electron microscopy (“EM”) assay, each sample was sonicated for 1 min to disrupt large clumps before testing. The sample (5-μL aliquot) was placed on freshly cleaved mica and allowed to air dry. The mica was placed in a Balzers High-vacuum, Freeze-Etch Unit (model 301), shadowed with platinum (30° angle), and coated with a carbon film. The replica was removed from the mica by flotation and transferred onto a 300-mesh copper grid. Samples were examined using a Joel 2000 FX transmission electron microscope. […]

[3] = molecular target: T2, Aβ; assay: circular dichroism (CD) assay, inhibition of fibrillogenesis; format: biochemical; conditions: soluble Aβ, 37° C., 190-240 nm
Description: as §1
In the circular dichroism (“CD”) assay, samples were transferred to 0.1-cm path-length quartz cuvettes and CD scans were taken using a Jasco J-715 spectropolarimeter. Readings were taken at 37° C., between 190 and 240 nm, with a resolution of 0.1 nm and a bandwidth of 1 nm. […]

T1 sequence (P05067 672-711 limits assumed): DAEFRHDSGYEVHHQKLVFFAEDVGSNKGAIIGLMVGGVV
T2 sequence (P05067 672-711 limits assumed): as above

MS Assay [1] | EM [2] | CD [3] | SMILES
− |  |  | Cl.N=C(N)c1ccc(OCCCOc2ccc(CCC(=O)O)cc2)cc1 [Compound 40]
+ |  |  | Cl.N=C(N)c1ccc(OCCCCCCCC(=O)O)cc1 [Compound 42]
+ |  |  | N=C(N)c1ccc(OCCCCCCCCCBr)cc1 [Compound 43]
+ |  |  | Cl.N=C(N)c1ccc(OCCCCCCCCC(=O)O)cc1 [Compound 45]
− |  |  | N=C(N)c1ccc(-c2cc3ccc(C(=N)N)cc3[nH]2)cc1 [Compound 47]
+ |  |  | Cl.Cl.N=C(N)Cc1ccc(OCCCCCOc2ccc(CC(=N)N)cc2)cc1 [Compound 48]
+ |  |  | Cl.Cl.N=C(N)Nc1ccc(OCCCCCOc2ccc(NC(=N)N)cc2)cc1 [Compound 49]
+ |  |  | Cc1c(-c2ccc(C(=N)N)cc2)oc(-c2ccc(C(=N)N)cc2)c1C [Compound 57]
+ |  |  | COc1ccc2c(c1)[nH]c1cc(C(=N)N)ccc12 [Compound 59]
+ | − | + | CC(C)NC(=N)c1cccc(COc2cccc3c(OCc4cccc(C(=N)NC(C)C)c4)cccc23)c1 [Compound 60]
+ | + | + | CC(C)NC(=N)c1ccc(COc2cccc3c(OCc4ccc(C(=N)NC(C)C)cc4)cccc23)cc1 [Compound 61]
+ | + | + | CC(C)NC(=N)c1ccc(OCc2ccc(COc3ccc(C(=N)NC(C)C)cc3)c3ccccc23)cc1 [Compound 62]
+ |  |  | c1cc2c(cc1C1=NCCN1)c1cc(C3=NCCN3)ccc1n2CCCCCn1c2ccc(C3=NCCN3)cc2c2cc(C3=NCCN3)ccc21 [Compound 63]
− |  |  | N=C(N)c1ccc(COc2ccc([N+](=O)[O-])cc2)cc1 [Compound 67]
− |  |  | N=C(N)c1cccc(OCc2ccccc2)c1 [Compound 68]
+ | + | + | CC(C)c1ccc(OCc2ccc(C(=N)N)cc2)cc1 [Compound 70]
+ |  |  | Cc1cc(-c2nc3cc(C(=N)N)ccc3[nH]2)c(C)cc1-c1nc2cc(C(=N)N)ccc2[nH]1 [Compound 73]
+ | + | − | N=C(N)c1ccc(OCCCCCCCCCCCCOc2ccc(C(=N)N)cc2Br)c(Br)c1 [Compound 76]
+ |  |  | N=C(N)c1cccc(COc2cccc3c(OCc4cccc(C(=N)N)c4)cccc23)c1 [Compound 77]
+ |  |  | N=C(N)c1cccc(OCCC(O)COc2cccc(C(=N)N)c2)c1 (centres unmarked) [Compound 79]

MS Assay [1] | EM [2] | CD [3] | SMILES
+ |  |  | N=C(N)c1ccc2[nH]c(Cc3nc4cc([N+](=O)[O-])ccc4[nH]3)nc2c1 [Compound 80]
+ |  |  | N=C(N)c1ccc2[nH]c(-c3ccccc3)nc2c1 [Compound 81]
− |  |  | N=C(N)c1ccc(-c2cc(-c3cccc(C(=N)N)c3)on2)cc1 [Compound 82]
+ | + | − | N=C(N)c1ccc(-c2cc(-c3cccc(C(=N)N)c3)no2)cc1 [Compound 83]
− |  |  | COc1cc(C2=NCCN2)ccc1OCCCOc1ccc(C2=NCCN2)cc1OC [Compound 85]
+ |  |  | COc1cc(C(=N)N)ccc1OC/C=C\COc1ccc(C(=N)N)cc1OC [Compound 86]
+ |  |  | c1cc2[nH]c(-c3ccc4[nH]c(CCc5nc6cc(-c7nc8cc(C9=NCCN9)ccc8[nH]7)ccc6[nH]5)nc4c3)nc2cc1C1=NCCN1 [Compound 87]
+ |  |  | CCCCNC(=N)c1ccc2nc(-c3ccc(CCc4ccc(-c5nc6ccc(C(=N)NCCCC)cc6[nH]5)cc4)cc3)[nH]c2c1 [Compound 89]
+ |  |  | CC(C)NC(=N)c1ccc(COc2ccc3ccc(OCc4ccc(C(=N)NC(C)C)cc4)cc3c2)cc1 [Compound 90]
+ |  |  | CC(C)NC(=N)c1cccc(COc2ccc3ccc(OCc4cccc(C(=N)NC(C)C)c4)cc3c2)c1 [Compound 91]
+ |  |  | N=C(N)c1ccc(OCCCCCOc2ccc(-c3nc4cc(C(=N)N)ccc4[nH]3)cc2)cc1 [Compound 94]
+ |  |  | COC(=O)C(CCOc1ccc(C(=N)NO)cc1)CCOc1ccc(C(=N)NO)cc1 (centres unmarked) [Compound 95]
+ |  |  | CCC(C)NC(=N)c1ccc(OCCCCCOc2cccc(C3=NC4C=C(C(=N)NC(C)C)C=CC4N3)c2)cc1.Cl.Cl.Cl (centres unmarked) [Compound 96]
+ |  |  | Cn1c(CCCCc2nc3cc(C(=N)N)ccc3n2C)nc2cc(C(=N)N)ccc21 [Compound 97]
+ |  |  | N=C(N)c1ccc(NC(=O)CC(=O)Nc2ccc(C(N)N)cc2)cc1 [Compound 98]
+ |  |  | N=C(N)c1ccc(-c2ccc(-c3ccc(C(=N)N)cc3)o2)cc1 [Compound 99]
+ |  |  | CC(C)NC(=N)c1ccc(-c2ccc(-c3ccc(C(=N)NC(C)C)cc3)o2)cc1 [Compound 100]
+ | + | − | Cn1c(-c2nc3ccc(C(=N)N)cc3[nH]2)ccc1-c1nc2ccc(C(=N)N)cc2[nH]1 [Compound 103]
+ |  |  | Cc1nc(-c2ccc(C(=N)N)cc2)cc(-c2ccc(C(=N)N)cc2)n1 [Compound 106]
+ |  |  | Cn1c(-c2ccc(C(=N)N)cc2)ccc1-c1ccc(C(=N)N)cc1 [Compound 108]

MS Assay [1] | EM [2] | CD [3] | SMILES
+ |  |  | N=C(N)c1ccc2nc(-c3ccc4cc(-c5nc6ccc(C(=N)N)cc6[nH]5)ccc4c3)[nH]c2c1 [Compound 110]
+ |  |  | N=C(N)c1ccc2nc(-c3ccc(-c4ccc([N+](=O)[O-])cc4)o3)[nH]c2c1 [Compound 111]
+ |  |  | N=C(N)c1ccc2nc(-c3ccc(-c4ccc(-c5nc6ccc(C(=N)N)cc6[nH]5)cc4)cc3)[nH]c2c1 [Compound 113]
+ | + | − | N=C(N)c1ccc2nc(-c3ccc(Cc4ccc(-c5nc6ccc(C(=N)N)cc6[nH]5)cc4)cc3)[nH]c2c1 [Compound 114]
+ | + | − | N=C(N)c1ccc2nc(-c3ccc(C4CC4c4ccc(-c5nc6ccc(C(=N)N)cc6[nH]5)cc4)cc3)[nH]c2c1 (centres unmarked) [Compound 115]
+ | + | − | N=C(N)c1ccc2nc(-c3ccc(CCc4ccc(-c5nc6ccc(C(=N)N)cc6[nH]5)s4)cc3)[nH]c2c1 [Compound 116]
+ | + | − | COc1ccc(-c2ccc(-c3ccc(C(=N)N)cc3)o2)cc1 [Compound 117]
− |  |  | Cc1cc(C(=N)N)ccc1-c1ccc(-c2ccc(C(=N)N)cc2C)o1 [Compound 118]
+ |  |  | N=C(N)c1ccc2[nH]c(-c3ccc4c(=O)cc(-c5ccccc5)oc4c3)nc2c1 [Compound 119]
+ | + | − | COc1cc(NC(=N)N)ccc1-c1ccc(-c2ccc(NC(=N)N)cc2OC)o1 [Compound 121]
+ | + | + | N=C(N)c1ccc(-c2ccc(-c3nc4ccccc4[nH]3)o2)cc1 [Compound 122]
+ | + | − | COc1ccc(-c2ccc(-c3ccc(NC(=N)N)cc3)o2)cc1 [Compound 123]
+ | + | − | CCc1ccc(CCc2ccc(-c3nc4ccc(C(=N)N)cc4[nH]3)cc2)cc1 [Compound 125]
+ |  |  | N=C(N)c1ccc2nc(-c3ccc(CCc4ccc(F)cc4)cc3)[nH]c2c1 [Compound 126]
+ |  |  | N=C(N)c1ccc(-c2ccc(-c3nc4cc(C(=N)N)ccc4o3)o2)cc1 [Compound 129]
+ |  |  | Cc1cc(C(=N)N)ccc1-c1ccc(-c2nc3ccc(C(=N)N)cc3[nH]2)o1 [Compound 131]
+ |  |  | CC(=N)Nc1ccc(-c2ccc(-c3ccc(NC(C)=N)cc3C)o2)c(C)c1 [Compound 135]
+ |  |  | N=C(Nc1ccc(-c2ccc(-c3ccc(NC(=N)c4ccccn4)cc3O)o2)c(O)c1)c1ccccn1 [Compound 136]

SMILES | MS Assay [1] | EM [2] | CD [3]
Br.N=C(N)c1ccc(OCCCCCCCCBr)cc1 [Compound 44] | + |  | 
N=C(N)c1ccc(-c2coc(-c3ccc(C(=N)N)cc3)c2)cc1 [Compound 120] | + | + | −
